Values quoted from earlier work as cited in patent publication US6046167A, “Peptide YY analogs” (University of Cincinnati, priority 1998, dated 2000).

System: rat small intestine
Conditions: voltage clamped preparations of rat small intestine; literature comparison

PYY: 36-residue peptide amide isolated originally from porcine intestine [Peptide YY]
antisecretory potency: greater antisecretory potency than NPY
